Results taken from ChEMBL document CHEMBL5370557, “Structure-based discovery of IHMT-IDH1-053 as a potent irreversible IDH1 mutant selective inhibitor” (Eur J Med Chem, 2023).

Tests used:
[1] = target: T1, Isocitrate dehydrogenase [NADP] cytoplasmic (Homo sapiens, UniProt O75874, R132H); assay: Inhibition of IDH1 R132H mutant (unknown origin) expressed in Escherichia coli BL21 (DE3) assessed as NADPH consumption using alpha-KG as substrate measured after 60 mins
[2] = target: T2, Isocitrate dehydrogenase [NADP], mitochondrial (Homo sapiens, UniProt P48735); assay: Inhibition of wild type IDH2 (unknown origin) expressed in Escherichia coli BL21 (DE3) assessed as NADPH consumption using alpha-KG as substrate measured after 60 mins
T2 sequence (P48735 whole entry): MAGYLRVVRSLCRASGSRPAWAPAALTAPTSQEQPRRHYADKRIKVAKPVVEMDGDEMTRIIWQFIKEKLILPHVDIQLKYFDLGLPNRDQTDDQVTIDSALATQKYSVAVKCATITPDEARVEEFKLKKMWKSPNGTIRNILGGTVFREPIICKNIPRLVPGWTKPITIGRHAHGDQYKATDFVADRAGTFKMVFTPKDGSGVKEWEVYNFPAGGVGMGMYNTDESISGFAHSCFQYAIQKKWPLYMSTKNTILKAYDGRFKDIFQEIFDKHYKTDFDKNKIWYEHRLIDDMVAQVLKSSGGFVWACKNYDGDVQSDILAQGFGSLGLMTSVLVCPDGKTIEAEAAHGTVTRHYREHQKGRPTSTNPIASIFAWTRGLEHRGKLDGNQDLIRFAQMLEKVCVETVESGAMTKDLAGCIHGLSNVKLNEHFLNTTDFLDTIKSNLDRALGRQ

[3] = target: Isocitrate dehydrogenase [NADP], mitochondrial (Homo sapiens, UniProt P48735, R140Q); assay: Inhibition of IDH2 R140Q mutant (unknown origin) expressed in Escherichia coli BL21 (DE3) assessed as NADPH consumption using alpha-KG as substrate measured after 60 mins
Sequence of Isocitrate dehydrogenase [NADP], mitochondrial (Homo sapiens, UniProt P48735, R140Q) (P48735 40-452 R140Q limits assumed): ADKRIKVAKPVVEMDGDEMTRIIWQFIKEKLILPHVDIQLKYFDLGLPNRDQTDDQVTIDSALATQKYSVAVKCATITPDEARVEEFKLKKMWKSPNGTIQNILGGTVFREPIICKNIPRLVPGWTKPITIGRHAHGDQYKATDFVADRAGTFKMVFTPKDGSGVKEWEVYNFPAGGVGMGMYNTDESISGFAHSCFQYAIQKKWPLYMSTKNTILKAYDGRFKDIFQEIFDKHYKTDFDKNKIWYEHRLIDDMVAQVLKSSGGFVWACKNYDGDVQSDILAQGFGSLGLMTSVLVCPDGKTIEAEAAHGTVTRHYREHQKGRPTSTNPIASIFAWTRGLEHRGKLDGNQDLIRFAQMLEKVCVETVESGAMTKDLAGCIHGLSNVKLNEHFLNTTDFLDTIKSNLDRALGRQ

[4] = target: Isocitrate dehydrogenase [NADP], mitochondrial (Homo sapiens, UniProt P48735, R172K); assay: Inhibition of IDH2 R172K mutant (unknown origin) expressed in Escherichia coli BL21 (DE3) assessed as NADPH consumption using alpha-KG as substrate measured after 60 mins
Sequence of Isocitrate dehydrogenase [NADP], mitochondrial (Homo sapiens, UniProt P48735, R172K) (P48735 40-452 R172K limits assumed): as the sequence (P48735 40-452 R140Q limits assumed) above, with Q101R, R133K counted along it

[5] = target: T1, Isocitrate dehydrogenase [NADP] cytoplasmic; assay: Inhibition of IDH1 R132H mutant (unknown origin) expressed in HEK293T cells assessed as inhibition of 2-HG generation measured after 48 hrs by LC-MS/MS analysis; type: cell-based

T1 sequence (O75874 2-414 R132H limits assumed): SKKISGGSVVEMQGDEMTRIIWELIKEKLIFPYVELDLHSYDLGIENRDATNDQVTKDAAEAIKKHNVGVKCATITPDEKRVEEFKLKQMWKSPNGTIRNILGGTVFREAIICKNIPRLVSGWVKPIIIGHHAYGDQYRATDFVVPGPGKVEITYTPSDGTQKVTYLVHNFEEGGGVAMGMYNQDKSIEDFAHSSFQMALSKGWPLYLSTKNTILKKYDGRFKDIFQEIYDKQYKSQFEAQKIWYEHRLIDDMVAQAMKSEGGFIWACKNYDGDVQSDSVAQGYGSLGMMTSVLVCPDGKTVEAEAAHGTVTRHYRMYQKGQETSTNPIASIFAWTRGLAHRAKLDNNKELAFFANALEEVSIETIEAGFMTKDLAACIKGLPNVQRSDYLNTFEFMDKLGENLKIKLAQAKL

| IC50 [1] [µM] | IC50 [5] [µM] | SMILES | also measured |
| --- | --- | --- | --- |
| 6.32 |  | C=CS(=O)(=O)Nc1ccc(Nc2ccc([C@H](C)Nc3ccc(C#N)cn3)cc2)cc1N(C)C |  |
| 0.63 |  | C=CC(=O)Nc1cc(-c2ccc([C@H](C)Nc3ncc(F)c(N4C(=O)OC[C@@H]4C(C)C)n3)cc2)ccc1N(C)C |  |
|  |  | N#Cc1ccnc(N2C(=O)CC[C@H]2C(=O)N(c2cncc(F)c2)[C@H](C(=O)NC2CC(F)(F)C2)c2ccccc2Cl)c1 [IVOSIDENIB] | IC50 [2]: > 10 µM; IC50 [3]: > 10 µM; IC50 [4]: > 10 µM |
| 0.119 | 0.214 | C=CS(=O)(=O)NC1CCCN(c2ccc([C@H](C)Nc3ncc(F)c(N4C(=O)OC[C@@H]4C(C)C)n3)cc2)C1 (some centres undefined) |  |
| 0.048 | 1.25 | C=CS(=O)(=O)Nc1ccc(Nc2ccc([C@H](C)Nc3ncc(F)c(N4C(=O)OC[C@@H]4C(C)C)n3)cc2)cc1N(C)C |  |
| 3.49 |  | CCS(=O)(=O)NC1CCN(c2ccc([C@H](C)Nc3ncc(C#N)cn3)cc2)CC1 |  |
| 0.44 | 0.295 | C=CC(=O)NC1CCCN(c2ccc([C@H](C)Nc3ncc(F)c(N4C(=O)OC[C@@H]4C(C)C)n3)cc2)C1 (some centres undefined) |  |
| 0.087 |  | CC(C)[C@H]1COC(=O)N1c1nc(N[C@@H](C)c2ccc(N3CCC(NC(=O)CCl)CC3)cc2)ncc1F |  |
| 0.516 |  | CC(C)[C@H]1COC(=O)N1c1nc(N[C@@H](C)c2ccc(N3CCCC(NC(=O)CCl)C3)cc2)ncc1F (some centres undefined) |  |
| 0.741 |  | CCC(=O)Nc1cc(-c2ccc([C@H](C)Nc3ncc(F)c(N4C(=O)OC[C@@H]4C(C)C)n3)cc2)ccc1N(C)C |  |
| 0.932 |  | CCC(=O)Nc1cc(Nc2ccc([C@H](C)Nc3ncc(F)c(N4C(=O)OC[C@@H]4C(C)C)n3)cc2)ccc1N(C)C |  |
| 0.161 | 0.171 | C=CS(=O)(=O)N1CCC(Nc2ccc([C@H](C)Nc3nccc(N4C(=O)OC[C@@H]4C(C)C)n3)cc2)CC1 |  |
| 0.198 |  | CCC(=O)NC1CCN(c2ccc([C@H](C)Nc3ncc(F)c(N4C(=O)OC[C@@H]4C(C)C)n3)cc2)CC1 |  |
| 2.76 |  | CCC(=O)Nc1ccc(Nc2ccc([C@H](C)Nc3nccc(N4C(=O)OC[C@@H]4C(C)C)n3)cc2)cc1N1CCN(CC)CC1 |  |
| 0.0059 | 0.045 | C=CS(=O)(=O)Nc1ccc(Nc2ccc([C@H](C)Nc3ncc(F)c(N4C(=O)OC[C@@H]4C(C)C)n3)cc2)cc1F |  |
| 4.49 |  | C=CS(=O)(=O)NC1CCN(c2ccc([C@H](C)Nc3ncc(C#N)cn3)cc2)CC1 |  |
| > 10 | 10 | CC(C)[C@H]1COC(=O)N1c1nc(N[C@@H](C)c2ccc(Nc3ccc(NC(=O)CCl)c(N4CCOCC4)c3)cc2)ncc1F |  |
| 0.898 |  | C=CC(=O)Nc1ccc(Nc2ccc([C@H](C)Nc3nccc(N4C(=O)OC[C@@H]4C(C)C)n3)cc2)cc1N1CCN(CC)CC1 |  |
| 0.042 | 0.129 | C=CS(=O)(=O)N1CCC(Nc2ccc([C@H](C)Nc3ncc(F)c(N4C(=O)OC[C@@H]4C(C)C)n3)cc2)CC1 |  |
| 2.77 |  | CCS(=O)(=O)Nc1ccc(Nc2ccc([C@H](C)Nc3ccc(C#N)cn3)cc2)cc1N(C)C |  |
